Experimental data as given in patent US20090133166A1, “Methods for Improving Flowering Characteristics Using Methyl Dihydrojasmonate” (NEW BIOLOGY, INC., priority 2007, published 2009).
Values joined by “and” are separate entries in the source; they are usually repeats but may differ in a detail not shown here. Equal entries are not always repeated.

Assays:
[1] = system: field grown ‘Julia Child’ roses; test: Vase life / bloom stage of cut field grown roses after pre-harvest foliar treatment; format: in vivo; parameters: key to Bloom Stage Day 1 / Bloom Stage Day 3: a: Green Bud; b: Full Bud; c: Flower in early bloom stage; d: Flower in fully open stage; Flower in late bloom stage; Fully wilted flower; Flower drooped before fully opening
Experimental: Foliage of field grown ‘Julia Child’ roses were sprayed to the point of drip 24 hours before harvesting with an aqueous solution comprising 5.0 mM MDHJ, 0.125% Triton® X-100, and 0.5% canola oil. On average, about 100 ml of the formulation was applied per plant, comprising an approximate volume of 130 μl (or 500 μM) MDHJ. Stems of flowers in the bud to early-bloom stage were cut in the field. Stems received a fresh cut while submerged under water before transferring to a water-filled vase. The bloom stage of 4-5 flowers was analyzed on day 1 and day 3, as compared with untreated roses that were otherwise similarly handled. FIG. 1 illustrates the full vases of flowers for the treated and untreated roses on day 1 and day 3, respectively. FIG. 2 illustrates individual roses on day 1 and day 3.

[2] = system: Parade Roses®; test: Flower development on intact flowering rose plants after foliar treatment; format: in vivo; parameters: key to Bloom Stage Day 1 / Bloom Stage Day 12: 1: Early bloom; 2: Fully Open; 3: Wilted
Experimental: Parade Roses® with flowers in the bud to early bloom stage were treated to the point of drip on day 1 and day 2 with an aqueous solution comprising either (1) 0.125% Triton® X-100 and 0.5% canola oil as a control treatment; or (2) 1.5 mM MDHJ, 0.125% Triton® X-100, and 0.5% canola oil. There were four plants per treatment. Approximately 10 ml of each treatment was applied to each plant, comprising approximately 3.9 μL (15 μM MDHJ). Rate of flower development of individual flowers was monitored and compared between treatments. On day 1 and day 12, individual flowers were rated according to their stage of blooming. FIG. 3 is a photographic comparison of treated and untreated plants at day 1 and day 12.

[3] = plants treated before harvesting, vs untreated

Compound: CCCCCC1C(=O)CCC1CC(=O)OC (stereo not shown) [MDHJ, methyl dihydrojasmonate]
- Bloom Stage Day 1 ([1]; individual cut flowers, day 1, foliage sprayed 24 hours before harvesting with 5.0 mM MDHJ, 0.125% Triton X-100, 0.5% canola oil, listed as Treated): d and c and b (2×)
- Bloom Stage Day 3 ([1]; individual cut flowers, day 3, foliage sprayed 24 hours before harvesting with 5.0 mM MDHJ, 0.125% Triton X-100, 0.5% canola oil): d
- Ability of buds to open fully into flowers ([1]; plants treated before harvesting buds and early flowers, vs untreated): improving the ability of the buds to open fully into flowers
- Bent neck of stems [1, 3]: prevents stems from exhibiting bent neck
- Flower wilting [1, 3]: delays flower wilting
- Average Bloom Stage Day 1 ([2]; average of 8 flowers, day 1, scale 1 early bloom, 2 fully open, 3 wilted, 1.5 mM MDHJ formulation): 1.4
- Average Bloom Stage Day 12 ([2]; average of 8 flowers, day 12, scale 1 early bloom, 2 fully open, 3 wilted, 1.5 mM MDHJ formulation): 1.4
- Flower development on intact plants ([2]; formulation containing MDHJ vs control formulation without MDHJ): prolonged flower development
- Bloom Stage Day 1 ([2]; individual flowers on intact plants, day 1, 1.5 mM MDHJ, 0.125% Triton X-100, 0.5% canola oil applied day 1 and day 2, listed as Treatment 2): 2 (3×) and 1 (5×)
- Bloom Stage Day 12 ([2]; individual flowers on intact plants, day 12, 1.5 mM MDHJ, 0.125% Triton X-100, 0.5% canola oil applied day 1 and day 2, listed as Treatment 2): 2 (3×) and 1 (5×)
